Results as given in patent US7432095B2, “Formate dehydrogenase tolerant to halogen compounds and process for producing the same” (Kaneka Corporation, priority 2001, dated 2008).
Read-outs that look alike come from different tables or passages of the source.

Key:
[1] = system: FDH derived from the KNK607 strain; experiment: Haloketone tolerance: residual FDH activity of cell-free extract after standing with haloketone; format: biochemical; details: 30° C.
[2] = system: KNK65MA FDH (formate dehydrogenase); experiment: as above; format: biochemical, Thiobacillus sp. KNK65MA; details: 30° C.
Candida boidinii FDH = target: T1, Candida boidinii FDH (Candida boidinii, UniProt O13437); experiment: biochemical
T1 sequence (O13437 1-364): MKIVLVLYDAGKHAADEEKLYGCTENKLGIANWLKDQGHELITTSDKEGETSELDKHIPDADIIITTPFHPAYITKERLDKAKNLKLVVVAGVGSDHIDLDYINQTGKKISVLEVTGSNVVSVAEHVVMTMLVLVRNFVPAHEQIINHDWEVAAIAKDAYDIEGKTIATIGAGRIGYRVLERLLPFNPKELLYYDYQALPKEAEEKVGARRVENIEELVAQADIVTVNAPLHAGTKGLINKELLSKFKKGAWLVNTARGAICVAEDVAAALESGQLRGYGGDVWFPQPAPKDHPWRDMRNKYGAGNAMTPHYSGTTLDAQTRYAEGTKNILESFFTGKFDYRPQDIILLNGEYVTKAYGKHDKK

[3] = system: ethyl 4-chloroacetoacetate reduction system (NAD regeneration); experiment: Coenzyme regeneration in the enzymatic reduction system of ethyl 4-chloroacetoacetate; format: biochemical; details: 6 g ethyl 4-chloroacetoacetate in 60 ml, butyl acetate/water, pH 6.5, 30° C., 3.5 hours, reductase from HB101 (pNTS1M1)
Experimental: Escherichia coli HB101 (pFT002) expressing the KNK65MA-derived FDH as acquired in Example 7 and Escherichia coli HB101 (pFA002) expressing KNK607-derived FDH (WO 02/46427) were respectively inoculated into 60 ml of the liquid medium shown in Table 5 sterilized in a 500 ml Sakaguchi flask and shake-cultured at 37° C. for 9 hours. The resulting culture medium was inoculated into 100 ml of the liquid medium shown in Table 5 sterilized in a 500 ml Sakaguchi flask in size of 1% and shake-cultured at 37° C. for 46 hours. The resulting culture medium was centrifugally concentrated 5-fold and sonicated to give an FDH enzyme solution. On the other hand, for use as the reductase enzyme for reducing a 4-haloacetoacetate, the recombinant Escherichia coli HB101 (pNTS1M1)(FERM BP-8059) was inoculated into 100 ml of the medium shown in Table 5 sterilized in a 500 ml Sakaguchi flask, shake-cultured at 37° C. for 23 hours, and concentrated 10-fold and the cells were disrupted. […] After completion of the reaction, the reaction mixture was extracted with butyl acetate and the extract was analyzed. […]
The quantitation of ethyl 4-chloro-3-hydroxybutyrate was carried out by gas chromatography. […]

[4] = Formate dehydrogenase activity assay (NADH formation, absorbance at 340 nm) of the purified enzyme; format: biochemical, Thiobacillus sp. KNK65MA; details: for Specific activity: 0.1 M phosphate buffer pH 7, 500 mM sodium formate, 5 mM NAD
Experimental: In the present invention, the formate dehydrogenase activity of the polypeptide is assayed by quantitating the increase in absorbance at 340 nm resulting from the production of NADH at 30° C. or 40° C. in a 0.1 M phosphate buffer (pH 7) containing 500 mM sodium formate and 5 mM NAD.
The molecular weight determination is by gel permeation chromatography. The Km value for formate is determined by measuring the activity under the above conditions of activity assay (30° C., NAD 5 mM) while the concentration of sodium formate is varied, and the Km value for NAD is determined under the above conditions of activity assay (30° C., sodium formate 500 mM) while the concentration of NAD is varied. […]
The activity of the formate dehydrogenase obtained was assayed by quantitating the increase in absorbance at 340 nm resulting from formation of NADH in 0.1 M phosphate buffer (pH 7) containing 500 mM sodium formate and 5 mM NAD at 30° C. or 40° C. In this connection, the amount of the enzyme yielding […] of NADH in 1 minute was defined as 1 unit. Protein assay was performed by the method of Lowry using BSA as standard protein. The specific activity of the purified formate dehydrogenase was 7.6 u/mg protein (30° C.) or 13.3 μ/mg protein (40° C.)
The Km values for formate and NAD were determined as follows. Thus, the Km value for formate was determined by measuring the activity with the concentration of sodium formate varied under the above specific activity assay conditions (30° C., NAD 5 mM) and the Km value for NAD was determined by measuring the activity with the concentration of NAD varied under the above specific activity assay conditions (30° C., sodium formate 500 mM). In FIG. 3 and FIG. 4, V represents the reaction velocity of the enzyme, S represents the concentration of the substrate, and the intercept of the abscissa represents −1/Km. […]

[5] = KNK607 FDH extract, haloketone 20 mM added 1:1, 5 hours, untreated extract = 100%
[6] = KNK65MA FDH extract, haloketone 20 mM added 1:1, 5 hours, untreated extract = 100%
[7] = Candida boidinii FDH extract, haloketone 20 mM added 1:1, 30° C., 5 hours, untreated extract = 100%, read-out: Residual FDH activity (%)
[8] = […], haloketone 20 mM added 1:1, 5 hours, […]
[9] = […], haloketone 20 mM added 1:1, 30° C., 5 hours, […], read-out: Residual FDH activity (%)
[10] = […], haloketone 20 mM added 1:1, 28.5 hours, […]

Molecule: CC(C)(C)OC(=O)N[C@@H](Cc1ccccc1)C(=O)CCl [1,1-dimethylethyl [(1S)-3-chloro-2-oxo-1-(phenylmethyl)propyl]carbamate]
- Residual FDH activity (%) ([1]; KNK607 FDH extract, haloketone 2 mM added 1:1, 5 hours, untreated extract = 100%): 81.6%
- Residual FDH activity (%) ([2]; KNK65MA FDH extract, haloketone 2 mM added 1:1, 5 hours, untreated extract = 100%): 100.0%
- remaining activity at 2000 µM (Candida boidinii FDH; Candida boidinii FDH extract, haloketone 2 mM added 1:1, 30° C., 5 hours, untreated extract = 100%, read-out: Residual FDH activity (%)): 31.3%

Molecule: O=C(CCl)COC(=O)c1ccccc1 [1-(Benzoyloxy)-3-chloro-2-propanone, 1-(benzoyloxy)-3-chloro-2-propanone]
- Residual FDH activity (%) ([1]; KNK607 FDH extract, haloketone 10 mM added 1:1, 5 hours, untreated extract = 100%): 1.6%
- Residual FDH activity (%) ([2]; KNK65MA FDH extract, haloketone 10 mM added 1:1, 5 hours, untreated extract = 100%): 100.7%
- remaining activity at 10000 µM (Candida boidinii FDH; Candida boidinii FDH extract, haloketone 10 mM added 1:1, 30° C., 5 hours, untreated extract = 100%, read-out: Residual FDH activity (%)): 4.5%

Molecule: O=C(CO)CCl [1-Chloro-3-hydroxy-2-propanone, 1-chloro-3-hydroxy-2-propanone]
- Residual FDH activity (%) [1, 5]: 11.7%
- Residual FDH activity (%) [2, 6]: 80.1%
- remaining activity at 20000 µM (Candida boidinii FDH; [7]): 14.7%

Molecule: O=C(CCl)c1cccc(Cl)c1 [2,3′-Dichloroacetophenone, 2,3′-dichloroacetophenone]
- Residual FDH activity (%) [1, 8]: 27.0%
- Residual FDH activity (%) [2, 8]: 97.9%
- remaining activity at 20000 µM (Candida boidinii FDH; [9]): 7.4%

Molecule: O=C(CCl)c1cccnc1 [2-Chloro-1-(3-pyridinyl)ethanone, 2-chloro-1-(3-pyridinyl)ethanone]
- Residual FDH activity (%) [1, 8]: 6.1%
- Residual FDH activity (%) [2, 8]: 90.1%
- remaining activity at 20000 µM (Candida boidinii FDH; [9]): 1.5%

Molecule: O=C(CCl)c1ccccc1 [2-Chloroacetophenone, 2-chloroacetophenone]
- Residual FDH activity (%) [1, 10]: 100.0%
- Residual FDH activity (%) [2, 10]: 100.7%
- remaining activity at 20000 µM (Candida boidinii FDH; 28.5 h, read-out: Residual FDH activity (%)): 29.4%

Molecule: CCOC(=O)C(Cl)C(C)=O (centres unmarked) [Ethyl2-chloroacetoacetate, ethyl 2-chloroacetoacetate]
- Residual FDH activity (%) [1, 8]: 2.5%
- Residual FDH activity (%) [2, 8]: 100.0%
- remaining activity at 20000 µM (Candida boidinii FDH; [9]): 5.4%

Molecule: CCOC(=O)CC(=O)CBr [Ethyl4-bromoacetoacetate, ethyl 4-bromoacetoacetate]
- Residual FDH activity (%) [1, 5]: 0.0%
- Residual FDH activity (%) [2, 6]: 24.1%
- remaining activity at 20000 µM (Candida boidinii FDH; [7]): 0%

Molecule: CCOC(=O)CC(=O)CCl [Ethyl4-chloroacetoacetate, ethyl 4-chloroacetoacetate]
- Residual FDH activity (%) [1, 8]: 20.1%
- Residual FDH activity (%) [2, 8]: 100.7%
- remaining activity at 20000 µM (Candida boidinii FDH; [9]): 14.3%

Molecule: CCOC(=O)CC(=O)CI [Ethyl4-iodoacetoacetate, ethyl 4-iodoacetoacetate]
- Residual FDH activity (%) [1, 5]: 0.0%
- Residual FDH activity (%) [2, 6]: 12.1%
- remaining activity at 20000 µM (Candida boidinii FDH; [7]): 0%

Molecule: COC(=O)CC(=O)CCl [Methyl4-chloroacetoacetate, methyl 4-chloroacetoacetate]
- Residual FDH activity (%) [1, 8]: 13.1%
- Residual FDH activity (%) [2, 8]: 100.0%
- remaining activity at 20000 µM (Candida boidinii FDH; [9]): 14.9%

Molecule: chloroacetone
- Residual FDH activity (%) ([1]; 5 hours): 46.2%
- Residual FDH activity (%) ([2]; 5 hours): 100.0%
- Residual FDH activity (%) (Candida boidinii FDH; 30° C., 5 hours): 38.2%

B1: FDH derived from KNK65MA: Haloketone-tolerant NAD-dependent formate dehydrogenase from Thiobacillus sp. KNK65MA, amino acid sequence SEQ ID NO:1 (protein, listed as Thiobacillus sp.)
chain: MAKILCVLYDDPVDGYPKTYARDDLPKIDHYPGGQTLPTPKAIDFTPGQLLGSVSGELGLRKYLEANGHTFVVTSDKDGPDSVFEKELVDADVVISQPFWPAYLTPERIAKAKNLKLALTAGIGSDHVDLQSAIDRGITVAEVTYCNSISVAEHVVMMILGLVRNYIPSHDWARKGGWNIADCVEHSYDLEGMTVGSVAAGRIGLAVLRRLAPFDVKLHYTDRHRLPEAVEKELGLVWHDTREDMYPHCDVVTLNVPLHPETEHMINDETLKLFKRGAYIVNTARGKLADRDAIVRAIESGQLAGYAGDVWFPQPAPKDHPWRTMKWEGMTPHISGTSLSAQARYAAGTREILECFFEGRPIRDEYLIVQGGALAGTGAHSYSKGNATGGSEEAAKFKKAG
- Conversion rate to ethyl 4-chloro-3-hydroxybutyrate [3]: 100%
- Km ([4]; 30° C., NAD 5 mM, sodium formate varied, read-out: Km value for formate): 1600 µM
- Km ([4]; 30° C., sodium formate 500 mM, NAD varied, read-out: Km value for NAD): 48 µM
- Specific activity ([4]; 30° C.): 7.6 u/mg protein
- Specific activity ([4]; 40° C.): 13.3 μ/mg protein
